Laboratory results: paper PMC5103075, “An immunostimulatory dual-functional nanocarrier that improves cancer immunochemotherapy” (Nature Communications, 2016)
Converted amounts (≈) assume the structure as drawn. Like-named read-outs stand apart in the source and are kept apart here.

Legend:
[1] = system: 4T1.2 cells; assay: MTT cytotoxicity in 4T1.2 cells; assay type: cell-based, mouse; settings: 4T1.2, 72 h; for IC50: means±s.e.m.
Experimental: (§1) 4T1.2 or PC3 cells at 2,000 cells/well were seeded in 96-well plates, respectively. […] After 3 days of incubation, 20 μl of 3-(4, 5-dimethylthiazol-2-yl)-2,5-diphenyltetrazoliumbromide (MTT) in DPBS (5 mg ml^−1) was added to each well and cells were further incubated for 2 h. Medium was removed and MTT formazan crystals were solubilized by 100 μl of DMSO per well. Absorbance of each well was measured with a microplate reader at wavelength of 550 nm. Untreated wells were used as controls. Cell viability was calculated as ((ODtreated−ODblank)/(ODcontrol−ODblank) × 100%).

[2] = system: PC3 cells; assay: MTT cytotoxicity in PC3 cells; assay type: cell-based; settings: Homo sapiens, PC-3, PC3, 72 h, means±s.e.m.
Experimental: as §1

COc1cccc2c1C(=O)c1c(O)c3c(c(O)c1C2=O)C[C@@](O)(C(=O)CO)C[C@@H]3O[C@H]1C[C@H](N)[C@H](O)[C@H](C)O1 [DOX, doxorubicin]
IC50 [1]: 0.2686 ± 0.02728 µg/mL (≈ 0.494 µM)

CC(=O)O[C@H]1C(=O)[C@@]2(C)[C@H]([C@H](OC(=O)c3ccccc3)[C@]3(O)C[C@H](OC(=O)[C@H](O)[C@@H](NC(=O)c4ccccc4)c4ccccc4)C(C)=C1C3(C)C)[C@]1(OC(C)=O)CO[C@@H]1C[C@@H]2O [PTX, Paclitaxel]
Cytotoxicity (tumour cell growth inhibition) ([1]; Fig. 3d): inhibited the tumour cell growth in a concentration-dependent manner
IC50 ([1]; Mus musculus, read-out: IC50): 0.245 ± 0.0211 µg/mL (≈ 0.286 µM)
IC50 [2]: 0.101 ± 0.0112 µg/mL (≈ 0.119 µM)
